Patent publication US7897620B2, “Methods of using anti-inflammatory compounds” (Cambridge Enterprise Limited, priority 2007, dated 2011)
Where two headings read alike, the source gives them in different places.

Columns and labels:
[1] = tested on: IL-8 induced neutrophil migration; test: ChemoTx transwell migration assay, IL-8 induced migration of neutrophils; type: cell-based; conditions: maximal dose of chemoattractant, read-out: ED50 IL-8 neutrophils
Protocol: In principle, this assay consists of two chambers separated by a porous membrane. The chemoattractant is placed in the lower compartment and the cells are placed in the upper compartment. After incubation for a period at 37° C. the cells move towards the chemoattractant, and the number of cells in the lower compartment is proportional to the chemoattractant activity (relative to a series of controls).
Next, the chemoattractant solution to be placed in the lower compartment is prepared. For example, MCP-1 is diluted in GBSS+BSA to give a final concentration of 25 ng/ml. This is divided into two pots, as for the cell suspension. To one pot, the test compound is added to the same final concentration as was added to the cell suspension, while to the other pot an equal volume of GBSS+BSA plus vehicle as appropriate (e,g. not more than 1% DMSO) is added. Alternatively, other chemokines may be used (SDF-1α at 7.5 ng/ml; RANTES at 50 ng/ml; IL-8 at 10 ng/ml using neutrophils as the target cell population). In each case it is important to determine (in a separate experiment) the concentration of each chemokine which causes maximal stimulation of migration of the chosen target leukocyte population. […]
The number of cells migrated into the lower chamber under each condition can then be determined by a number of methods, including direct counting, labelling with fluorescent or radioactive markers or through the use of a vital dye. […] 3 μl of stock MTT solution are added to each well, and then the plate is incubated at 37° C. for 1-2 hours during which time dehydrogenase enzymes within the cells convert the soluble MTT to an insoluble blue formazan product that can be quantified spectrophotometrically. […]
At the end of this incubation, the liquid is carefully removed from the lower chambers, taking care not to disturb the precipitated formazan product. After allowing to air dry briefly, 20 μl of DMSO is added to each lower chamber to solubilise the blue dye, and absorbance at 595 nm is determined using a 96-well plate reader. […]

[2] = Pharmacokinetics following a single dose in rat (LC-MS/MS of blood, one-compartment model); type: in vivo; conditions: for AUC(0-inf): single oral dose 3 mg/kg in 1% CMC, read-out: Exposure (AUC 0->infinity) (converted); for clearance: read-out: Clearance; for bioavailability: po, 3 mg/kg
Protocol: Compounds were administered as a single dose (either 1 mg/kg bodyweight in 5% DMSO via the intravenous route or 3 mg/kg in 1% carboxymethylcellulose via the oral route) to three adult rats (using different rats for each compound and each route of administration).
Blood was then sampled at various time points (including just prior to dose administration) out to 24 hrs post dose, and the level of the various compounds was assessed using a validated LC-MS/MS assay. Briefly, 3-5 μl of the deproteinised sample was applied to a Waters Atlantis (C18 20×2.1 mm, 3 μm bead size) reverse phase chromatography column equilibrated in 0.1% formic acid in 95:5 water:actetonitrile. Over 3.5 minutes bound material was gradient eluted reaching 0.1% formic acid in 5:95 water:acetonitrile, followed by a step gradient back to 0.1% formic acid in 95:5 water:acetonitrile. The column eluent was then directed to an Applied Biosystems API 4000/3200 QTrap MS/MS mass spectrometer, with a Turbolonspray™ ion source operating in positive ion mode. The interface temperature was set at 650° C., with a 40 ms dwell time for each MRM transition, monitoring the following ions:
The internal standard in each determination was the related compound (S)-3-(2′,2′-dimethylpropanoylamino)-caprolactam, which was spiked into the sample prior to deproteinization. The lower limit of quantitation (LLOQ) for this assay was 2.4 ng/ml for each compound except (I′), where it was 38.1 ng/ml.
Following LC-MS/MS analysis of each collected sample, the pharmacokinetic disposition of the compound was modelled using Kinetica software, a well known software package for such applications.

[3] = Identification of the primary metabolites in pooled 24 h urine (LC-MS-MS full scan); type: in vivo; conditions: rat, single oral dose 3 mg/kg in 1% CMC, qualitative
Protocol: Urine was collected from rats exposed to a single oral dose (3 mg/kg in 1% CMC) of each compound over a 24 hour period in metabolic cages. The pooled urine sample was then subjected to full scan mass spectral analysis, using the same LC-MS conditions as described in example 1 above. Further MS-MS analysis of the product ions was then performed, and likely fragmentations/re-arrangements assigned from the publicly available Metabolite ID database.
For the major metabolites, the assigned structures were confirmed by synthesis of authentic samples, using methods well known in the art, which were subject to LC-MS-MS analysis under the same conditions as the urine samples.
Note that metabolite ID studies provide only qualitative estimates of the relative amounts of the different metabolites present, and separately validated assays with appropriate internal standards would be required to quantitate each metabolite species.
The detected metabolites, in rank order of concentration detected are shown in FIG. 2 for the five compounds analysed. It is important to note that the methodology used here is not necessarily exhaustive, and further (particularly minor) metabolites may also be present which were below the detection limits for the methods applied here. As a general rule, it can be assumed that metabolites representing 10% or more of the injected dose will be detected (though not necessarily structurally identified) by the methods used here).

[4] = blood, rat, averaged across three rats
[5] = rat, blood, iv, 1 mg/kg, rat, one-compartment model, averaged across three rats
[6] = rat, one-compartment model, averaged across three rats
[7] = blood, Rat, Intravenous PK (1 mg/kg), read-out: Half-life
[8] = blood, Rat, Oral PK (3 mg/kg), read-out: Half-life
[9] = plasma, iv, 1 mg/kg, rat, one-compartment model, averaged across three rats, read-out: t½ (mins) dominant plasma half-life
[10] = rat, blood, iv, 1 mg/kg, Rat, Intravenous PK (1 mg/kg)
[11] = rat, blood, iv, 1 mg/kg, Rat, Intravenous PK (1 mg/kg), read-out: Vss
[12] = rat, blood, iv, 1 mg/kg, rat, one-compartment model, averaged across three rats, read-out: Vss (L/kg) volume of distribution
[13] = rat, blood, Rat, Oral PK (3 mg/kg), read-out: Bioavailability (%)
[14] = rat, blood, rat, 1 mg/kg iv in 5% DMSO and 3 mg/kg oral in 1% CMC, one-compartment model, averaged across three rats, read-out: F (%) oral bioavailability

SMILES | EC50 [1] | AUC(0-inf) [2, 4] | clearance [2, 5] | major metabolite / route of metabolism detected in urine [3] | half-life [2, 7] | AUC ([2]; blood, Rat, Oral PK (3 mg/kg)) | Tmax ([2]; blood, Rat, Oral PK (3 mg/kg)) | half-life [2, 8] | half-life [2, 9] | clearance [2, 10] | Vd [2, 11] | Vd [2, 12] | bioavailability [2, 13] | bioavailability [2, 14] | other results
O=C1NCCCC[C@@H]1NC(=O)C12CC3CC(CC(C3)C1)C2 [(II), 3-(adamantane-1-carbonylamino)-caprolactam] | 0.6 nM | 7.95 ng·h/mL | 84 mL/min/kg | cytochrome P450-mediated hydroxylation | – | – | – | – | – | – | – | – | – | – | F (%) oral bioavailability ([2]; rat, 1 mg/kg iv in 5% DMSO and 3 mg/kg oral in 1% CMC, one-compartment model, averaged across three rats): <1%; Vss (L/kg) volume of distribution [2, 6]: 0.8 L/kg; t½ (mins) dominant plasma half-life [2, 6]: 16 min
O=C1NCCCC[C@@H]1NC(=O)C12CC3CC(CC(O)(C3)C1)C2 [(V), 3-(3′-hydroxyadamantyl-1-carbonylamino)-caprolactam] | 0.5 nM | 952 ng·h/mL | 31 mL/min/kg | the glucuronidated compound was the major metabolite | 24 min | 952 ng·h/mL | 15 min | 24 min | 24 min | 33 mL/min/kg | 0.8 L/kg | 1.4 L/kg | 59% | 59% | –
CC(C)(C)C(=O)N[C@H]1CCCNC1=O [Compound (I′), 3-(2′,2′-dimethylpropanoylamino)-tetrahydropyridin-2-one] | 0.6 nM | 15600 ng·h/mL | – | no significant metabolites of (I′) were detected in urine | 196 min | 15600 ng·h/mL | 15 to 120 min | 226 min | 196 min | 2.6 mL/min/kg | 0.7 L/kg | 0.7 L/kg | 81% | 69% | half-life ([2]; plasma, intravenous, 1 mg/kg, rat, read-out: plasma half-life): > 180 min; clearance, times lower than for the other lactam BSCIs ([2]; rat): more than 10 fold; clearance ([2]; rat, blood, intravenous, 1 mg/kg, rat, one-compartment model, averaged across three rats): 2.6 mL/min/kg; exposure relative to the next best compound (V) ([2]; rat, oral): ~20 fold; plasma half-life, fold longer ([2]; rat, versus the other compounds examined): 10 fold
CC(C)(C)S(=O)(=O)N[C@H]1CCCCNC1=O [(IV), 3-(1′,1′-dimethylethylsulfonylamino)-caprolactam] | – | 690 ng·h/mL | 32 mL/min/kg | the major metabolite could not be identified | – | – | – | – | 19 min | – | – | 0.6 L/kg | – | 45% | –
